Assay results as given in ChEMBL document CHEMBL3882734, “Therapeutic compounds” (2010).

Legend:
[1] = molecular target: T1, Prostaglandin E2 receptor EP2 subtype (Homo sapiens, UniProt P43116); assay: Displacement of [3H]PGE2 from human EP2 receptor expressed in HEK293 cells at pH 7.3 membranes incubated for 60 mins; format: cell-based
[2] = molecular target: T1, Prostaglandin E2 receptor EP2 subtype; assay: Agonist activity at human recombinant EP2 receptor expressed in HEK293 cells assessed as effect on calcium accumulation by Fluo-4 AM dye based FLIPR assay; format: functional, cell-based
Canis familiaris [3] = assay: Effect on ocular surface hyperemia in Beagle dog assessed as maximum ocular surface hyperemia score assigned value at 0.1% administered topically to one eye immediately after first intraocular pressure reading by pneumatonometry; format: functional, Canis lupus familiaris
Rhesus monkey [4] = assay: Reduction in intraocular pressure in monkey assessed as maximal change in intraocular pressure at 0.1% administered topically to one eye immediately after first intraocular pressure reading by pneumatonometry; format: functional, Macaca mulatta
Canis familiaris [5] = assay: Effect on ocular surface hyperemia in Beagle dog assessed as maximum ocular surface hyperemia score assigned value at 0.3% administered topically to one eye immediately after first intraocular pressure reading by pneumatonometry; format: functional, Canis lupus familiaris
Rhesus monkey [6] = assay: Reduction in intraocular pressure in monkey assessed as maximal change in intraocular pressure at 0.3% administered topically to one eye immediately after first intraocular pressure reading by pneumatonometry; format: functional, Macaca mulatta
Rhesus monkey [7] = assay: Reduction in intraocular pressure in monkey assessed as maximal change in intraocular pressure at 0.01% administered topically to one eye immediately after first intraocular pressure reading by pneumatonometry; format: functional, Macaca mulatta
[8] = molecular target: Prostaglandin E2 receptor EP4 subtype (Homo sapiens, UniProt P35408); assay: Displacement of [3H]PGE2 from human EP4 receptor expressed in HEK293 cells membranes incubated for 60 mins; format: cell membranes
Prostaglandin E2 receptor EP4 subtype, sequence (P35408 whole entry): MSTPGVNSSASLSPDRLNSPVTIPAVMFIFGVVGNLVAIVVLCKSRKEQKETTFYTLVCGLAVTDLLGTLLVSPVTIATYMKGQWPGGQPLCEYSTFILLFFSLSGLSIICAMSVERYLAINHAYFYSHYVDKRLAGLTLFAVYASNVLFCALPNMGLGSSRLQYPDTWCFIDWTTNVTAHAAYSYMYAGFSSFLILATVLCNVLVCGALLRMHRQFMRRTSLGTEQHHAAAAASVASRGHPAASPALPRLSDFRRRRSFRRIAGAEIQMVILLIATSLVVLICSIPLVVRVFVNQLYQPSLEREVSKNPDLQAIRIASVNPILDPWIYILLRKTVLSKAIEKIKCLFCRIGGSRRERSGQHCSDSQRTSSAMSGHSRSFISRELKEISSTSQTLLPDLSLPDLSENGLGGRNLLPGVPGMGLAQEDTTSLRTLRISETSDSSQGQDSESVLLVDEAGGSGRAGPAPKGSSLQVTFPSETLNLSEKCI

T1 sequence (P43116 whole entry): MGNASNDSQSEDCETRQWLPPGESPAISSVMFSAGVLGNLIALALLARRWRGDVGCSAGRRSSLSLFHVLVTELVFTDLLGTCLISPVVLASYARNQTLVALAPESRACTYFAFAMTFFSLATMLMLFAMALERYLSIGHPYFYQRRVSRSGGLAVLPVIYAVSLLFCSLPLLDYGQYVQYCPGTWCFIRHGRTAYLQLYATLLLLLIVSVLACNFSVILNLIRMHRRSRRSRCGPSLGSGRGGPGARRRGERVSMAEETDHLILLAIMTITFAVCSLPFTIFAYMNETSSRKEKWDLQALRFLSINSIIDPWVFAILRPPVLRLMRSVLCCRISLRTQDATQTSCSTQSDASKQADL

Question: What does the source list for `CCCCCC(O)c1ccc([C@H]2CC[C@@H](Cl)[C@@H]2CCCCCCC(=O)OC)cc1` (stereo partly specified)?
Answer: Ki ([1]; hek293): 50 µM; EC50 ([2]; hek293): 50 µM

Question: Which Activity_index (Canis familiaris [3]) does the source give for `O=C(O)CCC/C=C\C[C@@H]1[C@@H](c2ccc(C(O)C3CCCCC3)cc2)[C@H](O)C[C@H]1Cl` (stereo partly specified) here?
Answer: The Activity_index was 1.

Question: With `CCCCCC(O)c1ccc([C@@H]2[C@@H](C/C=C\CCCC(=O)OC(C)C)[C@H](Cl)C[C@H]2Cl)cc1` (stereo partly specified) as the compound, how does the Activity (Rhesus monkey [4]) read?
Answer: The Activity was 19 mmHg.

Question: With `CCCCCC(O)c1cccc([C@H]2CCC(=O)[C@@H]2CCCCCCC(=O)OC)c1` (stereo partly specified) as the compound, how does the Ki ([1]; hek293) read?
Answer: Its Ki is 50 µM.

Question: And the EC50 ([2]; hek293)?
Answer: The EC50 was 50 µM.

Question: With `O=C(O)CCC/C=C\C[C@@H]1[C@@H](c2ccc3c(c2)CCC3O)[C@H](O)C[C@H]1Cl` (stereo partly specified) as the compound, how does the Activity_index (Canis familiaris [5]) read?
Answer: Its Activity_index is 1.

Question: What about the Activity (Rhesus monkey [6]) of the same compound?
Answer: The Activity was 7 mmHg.

Question: Which Activity (Rhesus monkey [7]) does the source give for `CC(C)OC(=O)CCC/C=C\C[C@@H]1[C@@H](c2ccc(C(O)C3CCCCC3)cc2)[C@H](O)C[C@H]1Cl` (stereo partly specified) here?
Answer: Its Activity is 5 mmHg.

Question: With `CCCCCC(=O)c1ccc([C@@H]2[C@@H](C/C=C\CCCC(=O)OC(C)C)[C@H](Cl)C[C@H]2O)cc1` as the compound, how does the Activity (Rhesus monkey [4]) read?
Answer: The Activity was 20 mmHg.

Question: Which Activity (Rhesus monkey [4]) does the source give for `CCCCCC(=O)c1ccc([C@@H]2[C@@H](C/C=C\CCCC(=O)O)[C@H](Cl)C[C@H]2O)cc1` here?
Answer: Its Activity is 31 mmHg.

Question: What does the source list for `CCCCCC(O)c1ccc([C@H]2CCC=C2CCCCCCC(=O)OC)cc1` (stereo partly specified)?
Answer: Ki ([1]; hek293): 50 µM; EC50 ([2]; hek293): 50 µM

Question: How did the Ki ([1]; hek293) turn out when `CCCCCC(O)c1ccc([C@H]2CC[C@@H](F)[C@@H]2CCCCCCC(=O)OC)cc1` (stereo partly specified) was run?
Answer: Its Ki is 50 µM.

Question: What about the EC50 ([2]; hek293) of the same compound?
Answer: The EC50 was 50 µM.

Question: With `CCCCCC(=O)c1ccc([C@H]2[C@H](O)CC(=O)[C@@H]2C/C=C\CCCC(=O)O)cc1` as the compound, how does the EC50 [2] read?
Answer: Its EC50 is 0.031 µM.

Question: And the Ki [8]?
Answer: Its Ki is 2.81 µM.

Question: For `CC(C)OC(=O)CCCCCC[C@@H]1[C@@H](c2ccc(C(C)(C)C)cc2)[C@H](O)C[C@H]1Cl`, which Activity (Rhesus monkey [7]) is on record?
Answer: Its Activity is 8 mmHg.

Question: Which results are given for `CCCCCC(O)c1ccc([C@H]2CC[C@@H](Cl)[C@@H]2CCCCCCCO)cc1` (stereo partly specified)?
Answer: Ki [1]: 50 µM; EC50 [2]: 50 µM

Question: How did the Activity (Rhesus monkey [4]) turn out when `CC(C)OC(=O)CCC/C=C\C[C@@H]1[C@@H](c2ccc(C(C)(C)CO)cc2)[C@H](O)C[C@H]1Cl` was run?
Answer: Its Activity is 6 mmHg.
